# pIC50: −log10 of the molar value.
# Molecular target: T1, human EP4 receptors (Homo sapiens, UniProt P35408)
# T1 construct: expressed in transfected cells
# Experiment: cAMP assay in human EP4 transfectant
# Type: cell-based
# Conditions: HEK293 cells expressing human EP4 receptors; 1 nM PGE2, 0.2 mM IBMX, 37° C. for 10 min
# Experimental: cAMP Assay in Human EP4 Transfectant HEK293 cells expressing human EP4 receptors (hEP4 cells) are maintained in DMEM containing 10% FBS and 500 μg/ml geneticin. For harvesting hEP4 cells, culture medium is aspirated and cells in 75 cm^2 flask are washed with 10 ml of phosphate buffered saline (PBS). Another 10 ml of PBS is added to the cells and incubated for 20 min at room temperature. Human EP4 cells are harvested by pipetting and centrifuged at 300×g for 4 min. Cells are resuspended in DMEM without neutral red at a density of 7×10^5 cells/ml containing 0.2 mM IBMX (PDE inhibitor), 1 nM PGE2 and test compounds in PCR-tubes, and incubated at 37° C. for 10 min. The reaction is stopped by heating at 100° C. for 10 min with thermal cycler. Concentration of cAMP in reaction mixtures is determined with SPA cAMP Kit (Amersham) or cAMP Screen™ (Applied Biosystems) according to the manufacture's instruction. Reference: Eur. J. Pharmacol. 340 (1997) 227-241 cAMP assay in human EP4 transfectant were conducted using the method described above. IC50: the concentration of the individual compound required to reduce the amount of ligand by 50%.
# T1 sequence (P35408 whole entry): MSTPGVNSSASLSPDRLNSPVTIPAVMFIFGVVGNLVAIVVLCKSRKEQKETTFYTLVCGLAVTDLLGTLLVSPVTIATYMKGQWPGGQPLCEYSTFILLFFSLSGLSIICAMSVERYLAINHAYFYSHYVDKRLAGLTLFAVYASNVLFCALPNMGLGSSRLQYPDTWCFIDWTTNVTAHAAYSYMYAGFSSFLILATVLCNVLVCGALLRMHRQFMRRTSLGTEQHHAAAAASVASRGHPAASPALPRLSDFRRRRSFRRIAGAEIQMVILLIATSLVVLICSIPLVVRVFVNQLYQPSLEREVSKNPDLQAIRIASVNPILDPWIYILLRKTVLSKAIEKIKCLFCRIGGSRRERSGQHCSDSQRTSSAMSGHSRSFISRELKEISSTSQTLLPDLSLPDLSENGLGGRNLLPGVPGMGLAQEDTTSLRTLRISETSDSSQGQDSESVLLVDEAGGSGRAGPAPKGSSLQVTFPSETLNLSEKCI
row,Compound,pIC50
1,"C[C@H](NC(=O)c1cc(Cl)cnc1N(C)Cc1ccc(Cl)cc1)c1ccc(C(=O)O)cc1 [EXAMPLE 51, 4-{(1S)-1-[({5-CHLORO-2-[(4-CHLOROBENZYL)(METHYL)AMINO]PYRIDIN-3-YL}CARBONYL)AMINO]ETHYL}BENZOIC ACID]",7.60
2,"C[C@H](NC(=O)c1cc(Cl)ccc1OCC1CCC1)c1ccc(C(=O)O)cc1 [EXAMPLE 29, 4-((1S)-1-{[5-CHLORO-2-(CYCLOBUTYLMETHOXY)BENZOYL]AMINO}ETHYL)BENZOIC ACID]",7.52
3,"O=C(O)c1ccc(CNC(=O)c2cc(Cl)ccc2OCCc2ccccc2Cl)cc1 [EXAMPLE 2, 4-[({5-CHLORO-2-[2-(2-CHLOROPHENYL)ETHOXY]BENZOYL}AMINO)METHYL]BENZOIC ACID]",6.97
4,"CC(C)OCCOc1ccc(Cl)cc1C(=O)N[C@@H](C)c1ccc(C(=O)O)cc1 [EXAMPLE 21, 4-((1S)-1-{[5-CHLORO-2-(2-ISOPROPOXYETHOXY)BENZOYL]AMINO}ETHYL)BENZOIC ACID]",6.70
5,"CC(C)COc1ccc(Cl)cc1C(=O)N[C@@H](C)c1ccc(C(=O)O)cc1 [EXAMPLE 30, 4-{(1S)-1-[(5-CHLORO-2-ISOBUTOXYBENZOYL)AMINO}ETHYL]BENZOIC ACID]",6.85
6,"COC(C)(C)CCOc1ccc(Cl)cc1C(=O)N[C@@H](C)c1ccc(C(=O)O)cc1 [EXAMPLE 20, 4-((1S)-1-{[5-CHLORO-2-(3-METHOXY-3-METHYLBUTOXY)BENZOYL]AMINO}ETHYL)BENZOIC ACID]",6.29
7,"O=C(O)c1ccc(CNC(=O)c2cc(Cl)ccc2OCCc2ccc(Cl)cc2)cc1 [EXAMPLE 4, 4-[({5-CHLORO-2-[2-(4-CHLOROPHENYL)ETHOXY]BENZOYL}AMINO)METHYL]BENZOIC ACID]",6.97
8,"C[C@H](NC(=O)c1cc(Cl)cnc1N(C)Cc1cccc(Cl)c1)c1ccc(C(=O)O)cc1 [EXAMPLE 52, 4-{(1S)-1-[({5-CHLORO-2-[(3-CHLOROBENZYL)(METHYL)AMINO]PYRIDIN-3-YL}CARBONYL)AMINO]ETHYL}BENZOIC ACID]",7.19
9,"Cc1ccccc1CCOc1ncc(Cl)cc1C(=O)N[C@@H](C)c1ccc(C(=O)O)cc1 [EXAMPLE 19, 4-{(1S)-1-[({5-CHLORO-2-[2-(2-METHYLPHENYL)ETHOXY]PYRIDIN-3-YL}CARBONYL)AMINO]ETHYL}BENZOIC ACID]",6.89
10,"C[C@H](NC(=O)c1cc(Cl)ccc1OCc1ccc(Cl)cc1)c1ccc(C(=O)O)cc1 [EXAMPLE 24, 4-[(1S)-1-({5-CHLORO-2-[(4-CHLOROBENZYL)OXY]BENZOYL}AMINO)ETHYL]BENZOIC ACID]",7.54
11,"C[C@H](NC(=O)c1cc(Cl)cnc1N(C)Cc1ccccc1Cl)c1ccc(C(=O)O)cc1 [EXAMPLE 48, 4-{(1S)-1-[({5-CHLORO-2-[(2-CHLOROBENZYL)(METHYL)AMINO]PYRIDIN-3-YL}CARBONYL)AMINO]ETHYL}BENZOIC ACID]",7.00
12,"C[C@H](NC(=O)c1cc(Cl)ccc1OCc1ccc(Cl)cc1F)c1ccc(C(=O)O)cc1 [EXAMPLE 45, 4-[(1S)-1-({5-CHLORO-2-[(4-CHLORO-2-FLUOROBENZYL)OXY]BENZOYL}AMINO)ETHYL]BENZOIC ACID]",7.19
13,"Cc1ccccc1CCOc1ccc(Cl)cc1C(=O)NCc1ccc(C(=O)O)cc1 [EXAMPLE 7, 4-[({5-CHLORO-2-[2-(2-METHYLPHENYL)ETHOXY]BENZOYL}AMINO)METHYL]BENZOIC ACID]",7.21
14,"C[C@H](NC(=O)c1cc(Cl)cnc1OCc1ccccc1Cl)c1ccc(C(=O)O)cc1 [EXAMPLE 39, 4-{(1S)-1-[({5-CHLORO-2-[(2-CHLOROBENZYL)OXY]PYRIDIN-3-YL}CARBONYL)AMINO]ETHYL}BENZOIC ACID]",7.12
15,"Cc1ccccc1CCOc1ccc(Cl)cc1C(=O)N[C@@H](C)c1ccc(C(=O)O)cc1 [EXAMPLE 11, 4-[(1S)-1-({5-CHLORO-2-[2-(2-METHYLPHENYL)ETHOXY]BENZOYL}AMINO)ETHYL]BENZOIC ACID]",7.70
16,"C[C@H](NC(=O)c1cc(Cl)cnc1N(C)CCc1ccccc1)c1ccc(C(=O)O)cc1 [EXAMPLE 16, 4-{(1S)-1-[({5-CHLORO-2-[METHYL(2-PHENYLETHYL)AMINO]PYRIDIN-3-YL}CARBONYL)AMINO]ETHYL}BENZOIC ACID]",6.46
17,"COC(COc1ccc(Cl)cc1C(=O)N[C@@H](C)c1ccc(C(=O)O)cc1)c1ccccc1 (stereo partly drawn) [EXAMPLE 27, 4-((1S)-1-{[5-CHLORO-2-(2-METHOXY-2-PHENYLETHOXY)BENZOYL]AMINO}ETHYL)BENZOIC ACID]",6.85
18,"C[C@H](NC(=O)c1cc(Cl)ccc1OCc1ccc(F)cc1Cl)c1ccc(C(=O)O)cc1 [EXAMPLE 46, 4-[(1S)-1-({5-CHLORO-2-[(2-CHLORO-4-FLUOROBENZYL)OXY]BENZOYL}AMINO)ETHYL]BENZOIC ACID]",7.26

row,Compound,pIC50
1,"C[C@H](NC(=O)c1cc(Cl)ccc1OCCC1CCOCC1)c1ccc(C(=O)O)cc1 [EXAMPLE 42, 4-[(1S)-1-({5-CHLORO-2-[2-(TETRAHYDRO-2H-PYRAN-4-YL)ETHOXY]BENZOYL}AMINO)ETHYL]BENZOIC ACID]",6.33
2,"C[C@H](NC(=O)c1cc(Cl)ccc1OCc1ccc(F)cc1)c1ccc(C(=O)O)cc1 [EXAMPLE 25, 4-[(1S)-1-({5-CHLORO-2-[(4-FLUOROBENZYL)OXY]BENZOYL}AMINO)ETHYL]BENZOIC ACID]",7.34
3,"C[C@H](NC(=O)c1cc(Cl)ccc1OCCOc1ccc(F)cc1)c1ccc(C(=O)O)cc1 [EXAMPLE 28, 4-[(1S)-1-({5-CHLORO-2-[2-(4-FLUOROPHENOXY)ETHOXY]BENZOYL}AMINO)ETHYL]BENZOIC ACID]",6.68
4,"C[C@H](NC(=O)c1cc(Cl)cnc1N(C)Cc1cccc(F)c1)c1ccc(C(=O)O)cc1 [EXAMPLE 53, 4-{(1S)-1-[({5-CHLORO-2-[(3-FLUOROBENZYL)(METHYL)AMINO]PYRIDIN-3-YL}CARBONYL)AMINO]ETHYL}BENZOIC ACID]",6.74
5,"C[C@H](NC(=O)c1cc(Cl)ccc1OCc1ccccc1F)c1ccc(C(=O)O)cc1 [EXAMPLE 36, 4-[(1S)-1-({5-CHLORO-2-[(2-FLUOROBENZYL)OXY]BENZOYL}AMINO)ETHYL]BENZOIC ACID]",6.77
6,"C[C@H](NC(=O)c1cc(Cl)cnc1OCCc1ccc(F)cc1)c1ccc(C(=O)O)cc1 [EXAMPLE 9, 4-{(1S)-1-[({5-CHLORO-2-[2-(4-FLUOROPHENYL)ETHOXY]PYRIDIN-3-YL}CARBONYL)AMINO]ETHYL}BENZOIC ACID]",6.62
7,"CC(C)CCOc1ccc(Cl)cc1C(=O)N[C@@H](C)c1ccc(C(=O)O)cc1 [EXAMPLE 14, 4-((1S)-1-{[5-CHLORO-2-(3-METHYLBUTOXY)BENZOYL]AMINO}ETHYL)BENZOIC ACID]",7.39
8,"C[C@H](NC(=O)c1cc(Cl)ccc1OCc1cccc(F)c1)c1ccc(C(=O)O)cc1 [EXAMPLE 43, 4-[(1S)-1-({5-CHLORO-2-[(3-FLUOROBENZYL)OXY]BENZOYL}AMINO)ETHYL]BENZOIC ACID]",6.85
9,"C[C@H](NC(=O)c1cc(Cl)ccc1OC1CCCCC1)c1ccc(C(=O)O)cc1 [EXAMPLE 13, 4-((1S)-1-{[5-CHLORO-2-(CYCLOHEXYLOXY)BENZOYL]AMINO}ETHYL)BENZOIC ACID]",7.46
10,"C[C@H](NC(=O)c1cc(Cl)cnc1N(C)Cc1ccccc1F)c1ccc(C(=O)O)cc1 [EXAMPLE 50, 4-{(1S)-1-[({5-CHLORO-2-[(2-FLUOROBENZYL)(METHYL)AMINO]PYRIDIN-3-YL}CARBONYL)AMINO]ETHYL}BENZOIC ACID]",6.92
11,"C[C@H](NC(=O)c1cc(Cl)ccc1OCc1ccccc1C#N)c1ccc(C(=O)O)cc1 [EXAMPLE 41, 4-[(1S)-1-({5-CHLORO-2-[(2-CYANOBENZYL)OXY]BENZOYL}AMINO)ETHYL]BENZOIC ACID]",7.41
12,"C[C@H](NC(=O)c1cc(Cl)ccc1OCCc1c(F)cccc1F)c1ccc(C(=O)O)cc1 [EXAMPLE 8, 4-[(1S)-1-({5-CHLORO-2-[2-(2,6-DIFLUOROPHENYL)ETHOXY]BENZOYL}AMINO)ETHYL]BENZOIC ACID]",7.01
13,"C[C@H](NC(=O)c1cc(Cl)ccc1OCc1cccc(Cl)c1)c1ccc(C(=O)O)cc1 [EXAMPLE 23, 4-[(1S)-1-({5-CHLORO-2-[(3-CHLOROBENZYL)OXY]BENZOYL}AMINO)ETHYL]BENZOIC ACID]",7.66
14,"C[C@H](NC(=O)c1cc(Cl)ccc1OCCc1ccccc1F)c1ccc(C(=O)O)cc1 [EXAMPLE 10, 4-[(1S)-1-({5-CHLORO-2-[2-(2-FLUOROPHENYL)ETHOXY]BENZOYL}AMINO)ETHYL]BENZOIC ACID]",7.32
15,"C[C@H](NC(=O)c1cc(Cl)cnc1OCCc1ccc(Cl)cc1)c1ccc(C(=O)O)cc1 [EXAMPLE 15, 4-{(1S)-1-[({5-CHLORO-2-[2-(4-CHLOROPHENYL)ETHOXY]PYRIDIN-3-YL}CARBONYL)AMINO]ETHYL}BENZOIC ACID]",7.11
16,"Cc1cc(COc2ccc(Cl)cc2C(=O)N[C@@H](C)c2ccc(C(=O)O)cc2)no1 [EXAMPLE 44, 4-[(1S)-1-({5-CHLORO-2-[(5-METHYLISOXAZOL-3-YL)METHOXY]BENZOYL}AMINO)ETHYL]BENZOIC ACID]",6.89
17,"O=C(O)c1ccc(CNC(=O)c2cc(Cl)ccc2OCc2ccc(Cl)cc2)cc1 [EXAMPLE 6, 4-[({5-CHLORO-2-[(4-CHLOROBENZYL)OXY]BENZOYL)AMINO)METHYL]BENZOIC ACID]",6.36
18,"C[C@H](NC(=O)c1cc(Cl)ccc1OCc1ccccc1)c1ccc(C(=O)O)cc1 [EXAMPLE 38, 4-((1S)-1-{[2-(BENZYLOXY)-5-CHLOROBENZOYL]AMINO}ETHYL)BENZOIC ACID]",7.12
